Measured values: patent US4183931A, “2-Ketoalkyl-4(3H)-quinazolinones” (Research Corporation, priority 1977, dated 1980)

Columns and labels:
[1] = Neuropharmacological Profile (NPP): general CNS observational screen (depression, righting reflex, ataxia); settings: i.p., mice, score 0-8
Experimental: Representative compounds according to the present invention were tested for central nervous system activity by Pharmakon Laboratories of Scranton, Pennsylvania. The battery of general observational procedures used is referred to herein as a Neuropharmacological Profile (NPP). Additionally, representative compounds were tested in the Anticonvulsant Screening Project of the National Institutes of Neurological and Communicative Disorders and Stroke (NINCDS) at the University of Utah under the direction of Dr. Ewart A. Swinyard.
(§1) The procedures for the determination of a neuropharmacological profile involved white male mice of the Carworth Farm Strain CF-1 weighing 18 to 22 grams. […] Intraperitoneal injections were administered in logarithmic progression and sequentially. The dose levels employed routinely were 10, 30, 100 and 300 mg/kg, using four male mice at each dose level. Since this test was conducted in a sequential manner, the first does administered was at 300 mg/kg. […] Approximately thirty-eight signs and symptoms of pharmacological activity can be identified.
(§2) The animals were observed continously for one hour and, if no signs of pharmacological or toxicological activity were present at the end of the first hour, they were intermittently checked for activity every fifteen minutes thereafter for two consecutive hours. […] The observation period began immediately following the injection and the animals were then continuously observed for three hours and intermittently checked thereafter for forty-eight hours. The animals were observed and signs and symptoms of pharmacological activity were recorded continuously until no further symptoms developed and until the symptoms that appeared were no longer present. […] In such instances, the animals were observed beyond this period until they returned to normal. Routinely, the number of animals alive at the end of the forty-eight hour observation period was recorded and the LD50 estimated.
The animals are free to move about for evaluation of spatial orientation, alertness and spontaneous motor activity.
(§3) Since this is a general CNS screening procedure, only peak effects were recorded. Certain measures of behavior and neurological deficit were scored in terms of intensity of effect, while most others were determined on an all or none basis. Thus, in scoring measures which were normally present, e.g., spontaneous activity and skin color, an increase in score from 4 to 8 was used to denote stimulation or enhancement of skin color, whereas a decrease in score from 4 to 0 indicated depression or cyanosis. For scoring measures normally absent, e.g., depression, righting reflex and ataxia, activity was reflected as an increase in score from 0 to 8. The 0 to 8 scale was rounded off so that the actual ratings are only 0, 2, 4, 6 and 8. The compounds were also evaluated for anticonvulsant activity by using the maximal electroshock seizure (MES) test. In the MES study, four mice were dosed intraperitoneally at 100 mg/kg and challenged thirty minutes later with 50 mA, 0.2 second duration of electroshock. A protection ratio (number of mice protected from tonic extension .div. number of mice tested) was then established.
At the termination of the test, the results were recorded and tabulated.
(§4) Scores for behavioral symptoms, including depression, righting reflex and ataxia, are the actual numbers reported. Protection against MES is reported as a percentage. Since four animals were involved in this test, the findings are 0% for none protected, 25% for one out of four, etc. […] In order to maintain reasonable uniformity in the reporting of results, each entry corresponds to a dosage level of 100 mg/kg. Any variations from that dosage are indicated.

[2] = NPP maximal electroshock seizure (MES) protection; assay type: in vivo, white male mice of the Carworth Farm Strain CF-1; settings: Mus musculus, ip, 0.5 h; at 100 mg/kg i.p., four mice, 30 min after dosing
Experimental: as §1, §3, §4

[3] = NPP lethality (estimated LD50); settings: mouse, in vivo, ip
Experimental: as §1, §2, §4

[4] = NINCDS Subcutaneous Pentylenetetrazol (Metrazol) Seizure Threshold Test (scMet); assay type: in vivo, mice; settings: for minimal effective dose: sc, read-out: scMet: dosage level that elicited protection
Experimental: (§5) 1. Neurological Activity Tests. […] Compounds were evaluated for anticonvulsant activity in two seizure models, the maximal electroshock seizure (MES) test and the subcutaneous pentylenetetrazol (Metrazol) seizure threshold (scMet) test.
Subcutaneous Pentylenetetrazol (Metrazol) Seizure Threshold Test (scMet) produces threshold (clonic) seizures. Pentylenetetrazol is administered subcutaneously as a threshold 0.5% solution (in 0.9% sodium chloride) in a loose fold of skin on the back of the neck in a dose of 85 mg/kg. […] Metrazol is given 10 minutes before the beginning of the test to allow for the delay in onset of Metrazol action. The animal is observed for 30 minutes. Failure to observe even a threshold seizure (a single episode of clonic spasms at least 5 seconds in duration) is defined as protection and indicates anticonvulsant activity in the test compound. These two methods of seizure provocation reliably elicit well-characterizied seizure phenomena.
(§6) The ability of a compound to prevent maximal electroshock seizures is believed to correlate with its ability to prevent the spread of seizure discharge through neural tissue. Activity against maximal electroshock seizures is thought to indicate potential efficacy in the treatment of major motor (grand mal) seizures. […] Selective action in the test is believed to indicate potential efficacy against absence (petit mal) seizures.
(§7) As described earlier, the MES, scMet and Rotorod tests were performed one-half hour and four hours after administration of each compound.
(§8) In the Secondary Evaluation, median effective doses (ED50) are determined in the MES, scMet and Rotorod assays using the procedures defined in Pharmacology, 95, 99-113 (1949).
(§9) Separate groups of animals are used for each time period. The times of peak toxic and anticonvulsant effect are taken from the resulting graph of percent of animals responding vs. time, and the determinations of median effective doses are performed at those times.

[5] = NINCDS rotorod ataxia test (minimal neurotoxicity); assay type: in vivo, mice
Experimental: (§10) 1. Neurological Activity Tests. The biological testing program is designed to evaluate the following four aspects of drug action: (1) the existence and specificity of anticonvulsant activity; (2) the toxicity, particularly to the central nervous system; and, if the results of (1) and (2) are favorable, (3) the potency and protective index, a comparison between toxic and effective dose and (4) the time course of activity. Compounds were evaluated for anticonvulsant activity in two seizure models, the maximal electroshock seizure (MES) test and the subcutaneous pentylenetetrazol (Metrazol) seizure threshold (scMet) test.
Central nervous system toxicity was evaluated in the rotorod ataxia test. This test is designed to detect minimal neurotoxicity. The animal is placed on a 1-inch diameter knurled plastic rod rotating at 6 rpm. Normal mice can remain indefinitely on a rod rotating at this speed. Neurological deficit is defined as the failure of the animal to remain on the rod for at least 1 minute. This test has a clear end-point, is quantifiable and correlates well with the clinical assessment of minimal toxicity.
(§11) Specific anticonvulsant evaluations performed by NINCDS using MES, scMet and Rotorod assays are presented in Tables III & IV for fourteen new compounds as well as several known compounds. Table III centers attention on 2-substituted-3-o-tolyl-4-(3H)-quinazolinones while Table IV includes the findings for various other 2,3-disubstituted-4(3H)-quinazolinones. As described earlier, the MES, scMet and Rotorod tests were performed one-half hour and four hours after administration of each compound. The tables identify the dosage level that elicited a positive result, such as protection against MES and scMet induced seizures, or loss of balance on the rotorod.
In the Secondary Evaluation, median effective doses (ED50) are determined in the MES, scMet and Rotorod assays using the procedures defined in Pharmacology, 95, 99-113 (1949). In addition, each compound's anticonvulsant activity and neurotoxicity over time are determined by measuring the effect of an intraperitoneally administered estimated median effective dose on maximal electroshock seizures and rotorod performance at intervals of 1/2, 1, 2, 3, 4, 6 and 8 hours.
as §9

[6] = NINCDS Maximal Electroshock Seizure Test (MES); assay type: in vivo, mice; settings: for minimal effective dose: read-out: MES: dosage level that elicited protection
Experimental: as §5
The Maximal Electroshock Seizure Test was performed according to the method described by Swinyard and coworkers,* wherein a drop of 0.9% saline is instilled in each eye prior to application of corneal electrodes. Seizures are elicited with a 50 Hz alternating current of 50 mA (5 to 7 times that necessary to elicit minimal electroshock seizures) delivered for 0.2 sec via corneal electrodes. This stimulus will produce a maximal seizure in all normal mice. The maximal seizure typically consists of a short period of initial tonic flexion and a prolonged period of hind limb tonic extension, followed by terminal clonus. The seizure lasts about 22 seconds. Abolition of the hind limb tonic extensor component of the seizure is defined as protection and indicates anticonvulsant activity in the test compound.
as §6, §7, §8, §9

[7] = NINCDS primary evaluation, overall classification; assay type: in vivo, mice; set-up: key to NINCDS Classification: III: did not exhibit activity in any of the 3 categories at dose levels of 300 mg/kg; settings: primary evaluation
Experimental: as §10, §11

[8] = literature; cited from earlier work
[9] = Mus musculus, after 4 hr (value in parentheses)
[10] = after 4 hr (value in parentheses)
[11] = Mus musculus, ip, secondary evaluation, at time of peak effect
[12] = Mus musculus, ip, after 4 hr (value in parentheses)

Row | Structure (SMILES) | CNS Depression ([1]; at 100 mg/kg) | LD50 at 48 h [3] | minimal effective dose ([4]; Mus musculus, after 0.5 hr) | minimal effective dose [4, 9] | Rotorod: dosage level that elicited loss of balance [5, 10] | minimal effective dose ([6]; Mus musculus, ip, after 0.5 hr) | Rotorod: dosage level that elicited loss of balance ([5]; after 0.5 hr) | also measured
1 | O=C(Cc1nc2ccccc2c(=O)n1-c1ccccc1Cl)c1cccnc1 [IVc, 2-[2-Oxo-2-(3-pyridyl)ethyl]-3-o-chlorophenyl-4(3H)-quinazolinone] | 4 | 562 mg/kg | 300 mg/kg | 300 mg/kg | 300 mg/kg |  |  | responders at 100 mg/kg [2]: 25%
2 | Cc1ccccc1-n1c(CC(=O)c2ccncc2)nc2ccccc2c1=O [IIId, 2-[2-Oxo-2-(4-pyridyl)ethyl]-3-o-tolyl-4(3H)-quinazolinone] | 0 | > 562 mg/kg | 30 mg/kg | 300 mg/kg |  | 100 mg/kg |  | Depression ([1]; at 300 mg/kg): 4; responders at 100 mg/kg [2]: 0%; ED50 [6, 11]: 74 mg/kg; MES protective index compared with methaqualone ([6]; secondary evaluation): approximately five-fold higher; PI MES (Protective Index = TD50/ED50) ([6]; secondary evaluation): 5.94; potency against electroshock-induced (MES) seizures compared with methaqualone ([6]; secondary evaluation): less potent than methaqualone; ED50 [4, 11]: 75 mg/kg; PI scMet (Protective Index = TD50/ED50) ([4]; secondary evaluation): 5.86; potency against scMet seizures compared with methaqualone ([4]; secondary evaluation): less potent than methaqualone; scMet protective index compared with methaqualone ([4]; secondary evaluation): approximately five-fold higher; TD50 ([5]; mouse, in vivo, ip, secondary evaluation, at time of peak effect): 440 mg/kg
3 | O=C(Cc1nc2ccccc2c(=O)n1-c1ccccc1Cl)C(F)(F)F [IVa, 2-(3,3,3-Trifluoroacetonyl)-3-o-chlorophenyl-4(3H)-quinazolinone] | 8 | 178 mg/kg |  |  | 300 mg/kg |  | 300 mg/kg | CNS Depression ([1]; at 30 mg/kg (value in parentheses)): 6; NINCDS Classification [7]: III
4 | Cc1ccccc1N1C(=O)c2ccccc2NC1C (stereo not drawn) [1,2-dihydro derivative] |  |  |  |  |  |  |  | sedative-hypnotic / hypnotic / depressant activity (in words) [8]: abolishes depressant activity
5 | CCc1nc2ccccc2c(=O)n1-c1ccccc1C [CH3, 2-Ethyl-3-o-tolyl-4(3H)-quinazolinone, reference compound] |  |  | 100 mg/kg | 300 mg/kg | 300 mg/kg | 100 mg/kg | 100 mg/kg | minimal effective dose [6, 12]: 300 mg/kg
6 | Cc1ccccc1-n1c(CC(=O)c2ccc(NC(=O)C(F)(F)F)cc2)nc2ccccc2c1=O [IIIl, 2-[2-Oxo-2-(p-trifluoroacetamidophenyl)ethyl]-3-o-tolyl-4(3H)-quinazolinone] |  |  | 300 mg/kg |  |  |  | 300 mg/kg | 
7 | O=C(Cc1nc2ccccc2c(=O)n1-c1ccccc1)c1cccnc1 [IVg, 2-[2-Oxo-2-(3-pyridyl)ethyl]-3-phenyl-4(3H)-quinazolinone] | 2 | 562 mg/kg | 100 mg/kg |  |  | 100 mg/kg |  | responders at 100 mg/kg [2]: 0%
8 | Cc1ccccc1-n1c(C)nc2c(c1=O)CCCC2 |  |  |  |  |  |  |  | sedative-hypnotic / hypnotic / depressant activity (in words) [8]: lack of hypnotic activity
9 | Cc1ccccc1-n1c(CC(=O)c2ccc[n+](C)c2)nc2ccccc2c1=O [CO-3-C5 H4 N^+ CH3 I^-] |  |  |  | 30 mg/kg |  |  | 100 mg/kg | minimal effective dose [6, 12]: 100 mg/kg; toxicity remark (footnote a to NINCDS classification) [7]: Extremely toxic
10 | Cc1ccccc1-n1c(C)nc2cc(N)ccc2c1=O [H and 7-amino, reference compound] |  |  | 100 mg/kg | 100 mg/kg | 300 mg/kg | 100 mg/kg | 100 mg/kg | minimal effective dose [6, 12]: 100 mg/kg; toxicity remark (footnote a to NINCDS classification) [7]: Extremely toxic
11 | Cc1ccccc1-n1c(CC(O)c2ccccc2)nc2ccccc2c1=O (stereo not drawn) [CHOHC6 H5, 2-(2-Hydroxy-2-phenylethyl)-3-o-tolyl-4(3H)-quinazolinone] |  |  | 300 mg/kg |  | 300 mg/kg |  |  | 
12 | CCN(CC)c1ccc(-n2c(C)nc3ccccc3c2=O)cc1 [2-methyl-3-(p-diethylaminophenyl)-4(3H)-quinazolinone] |  |  |  |  |  |  |  | sedative-hypnotic / hypnotic / depressant activity (in words) [8]: equal hypnotic activity to methaqualone
